US20260240869A1, “ANTIPSEUDOMONAL FUSIDIC ACID COMPOUNDS” (priority 2022, published 2026)

Columns and labels:
WT PA = details: retrospective literature analysis (Table 6); cited from earlier work
tolC EC = details: retrospective literature analysis (Table 6); cited from earlier work
P. aeruginosa PAO1 [1] = assay: MIC, CLSI broth microdilution, P. aeruginosa PAO1; format: cell-based, Pseudomonas aeruginosa
Experimental: (§1) Antimicrobial Susceptibility Tests. Susceptibility testing was performed in biological triplicate, using the microdilution broth method as outlined by the Clinical and Laboratory Standards Institute. Bacteria were cultured with cation-adjusted Meuller-Hinton broth (Sigma-Aldrich; catalogue number: 90922) or Luria-Bertani (LB) broth (Lennox) in round-bottom 96-well plates (Corning; catalogue number: 3788).

P. aeruginosa PAΔ6 [2] = assay: MIC, efflux pump knockout strain PAΔ6; format: cell-based, Pseudomonas aeruginosa
Experimental: as §1

P. aeruginosa PAO1 [3] = assay: LC-MS/MS whole-cell accumulation assay, P. aeruginosa PAO1; format: cell-based, Pseudomonas aeruginosa; details: for PA accum.: P. aeruginosa, value ± s.e.m. (Chart 2)
Experimental: (§2) Accumulation Assay. The accumulation assay was performed in triplicate in batches of ten samples, with each batch containing tetracycline or ciprofloxacin as a positive control. P. aeruginosa PAO1, PAO1 A6, PA14, PA14 A40, and PA1280, and E. coli MG1655 were used in these experiments. For each replicate, 2.5 mL (E. coli) or 5 mL (P. aeruginosa) of an overnight culture was diluted into 250 mL of fresh Luria-Bertani broth (Lennox) or Tryptic Soy Broth (TSB) and grown at 37° C. with shaking to an optical density (OD600) of 0.55-0.60. The bacteria were pelleted at 3220 r.c.f. for 10 min at 4° C., and the supernatant was discarded. The pellets were resuspended in 40 mL of phosphate buffered saline (PBS) and pelleted as before, and the supernatant was discarded. The pellets were resuspended in 8.8 mL of fresh PBS and aliquoted into ten, 1.5 mL Eppendorf tubes (875 μL each). The number of colony-forming units (CFUs) was determined by a calibration curve. The samples were equilibrated at 37° C. with shaking for 5 min; compound was added (final concentration=50 μM), and then the samples were incubated at 37° C. with shaking for either 10 min. These time points were short enough to minimize metabolic and growth changes (no changes in OD600 or CFU count observed). After incubation, 800 μL of the cultures was carefully layered on 700 μL of silicone oil (9:1 AR20/Sigma High Temperature, cooled to −78° C.). Bacteria were pelleted through the oil by centrifuging at 13 000 r.c.f. for 2 min at room temperature (with the supernatant remaining above the oil); the supernatant and oil were then removed by pipetting. To lyse the samples, each pellet was dissolved in […] of water, and then, they were subjected to three (E. coli) or four (P. aeruginosa) freeze-thaw cycles of 3 min in liquid nitrogen followed by 3 min in a water bath at 65° C. P. aeruginosa samples were then treated with 50 µM DNase and RNase and incubated at 37° C. for 15 minutes. The lysates were pelleted at 13 000 r.c.f. for 2 min at room temperature, and the supernatant was collected ([…]). The debris was resuspended in 100 μL of methanol and pelleted as before. The supernatants were removed and combined with the previous supernatants collected. Finally, the remaining debris was removed by centrifuging at 20 000 r.c.f. for 10 min at room temperature. Supernatants were analyzed by LC-MS/MS.
(§3) Samples were analyzed with the 5500 QTRAP LC/MS/MS system (AB Sciex) with a 1200 series HPLC system (Agilent Technologies) including a degasser, an autosampler, and a binary pump. Liquid chromatography separation was performed on an Agilent SB-Aq column (4.6×50 mm, 5 μm) (Agilent Technologies) with mobile phase A (0.1% formic acid in water) and mobile phase B (0.1% formic acid in acetonitrile). The flow rate was 0.3 mL/min. The linear gradient was as follows: 0-3 min, 100% mobile phase A; 10-15 min, 2% mobile phase A; 15.5-21 min, 100% mobile phase A. The autosampler was set at 5° C. The injection volume was 15 μL. Mass spectra were acquired with both positive electrospray ionization at the ion spray voltage of 5500 V and negative electrospray ionization at the ion spray voltage of −4500 V. The source temperature was 450° C. The curtain gas, ion source gas 1, and ion source gas 2 were 33, 50, and 65, respectively. Multiple reaction monitoring was used to quantify the metabolites. Power analysis was not used to determine the number of replicates. Error bars represent the standard error of the mean of three biological replicates. The statistical significance of the accumulation was determined using a two sample Welch's t test (one-tailed test, assuming unequal variance) relative to the negative controls. All compounds evaluated in the biological assays were >95% pure.
MBN assay. Assays measuring permeabilization by polymyxin B nonapeptide (PMBN) were performed as above, with the addition of 8 μg/mL PMBN immediately before the compound of interest was added.

P. aeruginosa PAΔ6 [4] = assay: LC-MS/MS whole-cell accumulation assay, PAΔ6; format: cell-based, Pseudomonas aeruginosa
Experimental: as §2, §3

WT EC = details: retrospective literature analysis (Table 6); cited from earlier work
E. coli MG1655 = assay: LC-MS/MS whole-cell accumulation assay, E. coli MG1655; format: cell-based; details: E. coli, value ± s.e.m. (Chart 2)
Experimental: as §2, §3

Cc1ccc2c(C)c3c(c(O)c2c1O)C(=O)[C@]1(O)C(=O)C(C(N)=O)=C(O)[C@H](N)[C@@H]1C3 [CDCHD]
WT PA MIC (WT PA): 1 µg/mL
tolC EC MIC (tolC EC): 0.25 µg/mL

CC(=O)C1=C(O)[C@H](N)[C@@H]2Cc3c(c(O)c4c(O)c(C)ccc4c3C)C(=O)[C@]2(O)C1=O [CHD]
WT PA MIC (WT PA): 16 µg/mL
tolC EC MIC (tolC EC): 0.5 µg/mL

O=C(N[C@H](CO)[C@H](O)c1ccc([N+](=O)[O-])cc1)C(Cl)Cl [Chloramphenicol]
MIC (P. aeruginosa PAO1 [1]; Pseudomonas aeruginosa, WT P. aeruginosa PAO1, MH or LB broth (Table 2), read-out: WT MIC): > 512 µg/mL
WT MIC (P. aeruginosa PAO1 [1]; WT P. aeruginosa PAO1, MH or LB broth (Table 7)): >512 µg/mL
PAΔ6 MIC (P. aeruginosa PAΔ6 [2]; MH or LB broth (Table 7)): 4 µg/mL
Fold change (P. aeruginosa PAΔ6 [2]; MIC ratio WT PAO1 / PAΔ6 (Table 2)): >128
Fold change (MIC) (P. aeruginosa PAΔ6 [2]; WT MIC / PAΔ6 MIC (Table 7)): >128
PAΔ6 MIC (P. aeruginosa PAΔ6 [2]; efflux pump KO strain, MH or LB broth (Table 2)): 4 µg/mL
WT Accum (P. aeruginosa PAO1 [3]; WT PAO1, ± s.e.m. (Table 7)): 122 ± 23 nmol/10^12 CFUs
change of accumulation in efflux pump knockout PAΔ6 versus WT PAO1 (P. aeruginosa PAΔ6 [4]; FIG. 1c): increase in accumulation
Fold change (Accum) (P. aeruginosa PAΔ6 [4]; PAΔ6 Accum / WT Accum (Table 7)): 4.4
PAΔ6 Accum (P. aeruginosa PAΔ6 [4]; ± s.e.m. (Table 7)): 537 ± 19 nmol/10^12 CFUs

CCNc1cc(F)cc2c1[nH]c1ncc(-c3cnc(OC)nc3)c(-n3cc(CN)c(C(F)(F)F)n3)c12 [Compound 17r]
WT PA MIC (WT PA): 1.3 µg/mL
WT EC MIC (WT EC): 0.31 µg/mL

CCNc1cc(F)cc2c1[nH]c1ncc(-c3cnc(OC)nc3)c(-n3ncc4c3CNC4)c12 [Compound 17x]
WT PA MIC (WT PA): 10 µg/mL
WT EC MIC (WT EC): 0.81 µg/mL

N[C@H]1CO[C@H]2[C@@H]1OC[C@H]2OS(=O)(=O)c1ccc(-c2ccccc2)cc1 [Compound 48]
PA accum. (P. aeruginosa PAO1 [3]): 282 ± 37 nmol/10^12 CFUs
EC accum. (E. coli MG1655): 1965 ± 291 nmol/10^12 CFUs

N[C@H]1CO[C@H]2[C@@H]1OC[C@H]2OS(=O)(=O)c1ccc(Br)cc1 [Compound 49]
PA accum. (P. aeruginosa PAO1 [3]): 217 ± 3 nmol/10^12 CFUs
EC accum. (E. coli MG1655): 1647 ± 108 nmol/10^12 CFUs

Cc1ccc(S(=O)(=O)O[C@@H]2CO[C@H]3[C@@H]2OC[C@@H]3N)cc1 [Compound 50]
PA accum. (P. aeruginosa PAO1 [3]): 163 ± 39 nmol/10^12 CFUs
EC accum. (E. coli MG1655): 877 ± 29 nmol/10^12 CFUs

NC1CCCc2c1cncc2N1Cc2cc(Cl)ccc2C1=O (stereo not drawn) [Compound 51]
PA accum. (P. aeruginosa PAO1 [3]): 222 ± 11 nmol/10^12 CFUs
EC accum. (E. coli MG1655): 500 ± 10 nmol/10^12 CFUs

N#Cc1ccc(-c2cncc3c2CCCC3N)cc1 (stereo not drawn) [Compound 52]
PA accum. (P. aeruginosa PAO1 [3]): 161 ± 12 nmol/10^12 CFUs
EC accum. (E. coli MG1655): 929 ± 39 nmol/10^12 CFUs

CN1C(=O)CCc2cc(-c3cncc4c3CCC[C@H]4N)ccc21 [Compound 53]
PA accum. (P. aeruginosa PAO1 [3]): 282 ± 37 nmol/10^12 CFUs
EC accum. (E. coli MG1655): 437 ± 28 nmol/10^12 CFUs
